In paper PMC5877436, “A first-in-human phase I study to determine the maximum tolerated dose of the oral Src/ABL inhibitor AZD0424” (British Journal of Cancer, 2018):
Entries after “also recorded” stand apart in the source; their conditions may differ. Where two headings read alike, the source gives them in different places.

Assays:
breast cancer cell = tested on: breast cancer cell; design: method as in Srinivasan and Plattner, 2006; settings: ref Srinivasan and Plattner, 2006; cited from earlier work
[1] = tested on: C-terminal Src tyrosine kinase (CSK); settings: cited from earlier work
[2] = design: method as in Baselga et al, 2010; settings: ref Baselga et al, 2010; cited from earlier work
[3] = design: method as in Reddy et al, 2015; settings: colorectal cancer patients; ref Reddy et al, 2015; cited from earlier work
[4] = tested on: mouse fibroblasts engineered to over-express activated Src kinase (c-SRC 3T3); settings: in vitro, pre-clinical; cited from earlier work
Src [5] = tested on: Src; design: method as in Cancer Research UK Centre for Drug Development, 2015; settings: ref Cancer Research UK Centre for Drug Development, 2015; cited from earlier work
[6] = human, in vivo
Procedure: (§1) Treatment cycles consisted of 28 days of continuous AZD0424 administration, and treatment was to be continued until disease progression, patient withdrawal or unacceptable toxicity.
(§2) All patients receiving at least one dose of AZD0424 were evaluable for safety and efficacy analyses. Safety and tolerability of AZD0424 were assessed according to NCI CTCAE version 4.02.

[7] = Phase Ia dose escalation: safety and tolerability (NCI CTCAE v4.02, DLT, MTD)
Procedure: as §1, §2

human tumour cells = settings: in vitro, pre-clinical; cited from earlier work
[8] = rat, pre-clinical; cited from earlier work
ABL1 = tested on: ABL1; design: method as in Cancer Research UK Centre for Drug Development, 2015; settings: ref Cancer Research UK Centre for Drug Development, 2015; cited from earlier work
[9] = tested on: non-engineered human tumour cell lines; settings: in vitro, diverse panel, pre-clinical; cited from earlier work
[10] = assay type: in vivo
clinical = settings: human, plasma, oral
Procedure: (§3) Patients were fasted for 3 h prior to administration of AZD0424. Blood samples for analysis of plasma levels of AZD0424 were taken at the following time points: Cycle 1: Pre-dose and at 0.5, 1, 2, 4, 6 and 10 h post-dose on Day 1, then at 24 and 48 h and pre-dose on Days 8, 15 and 22; Cycle 2 (Day 29): Pre-dose and at 0.5, 1, 2, 4, 6, 10, 24 and 48 h. For patients receiving twice-daily AZD0424, the timing of samples was in relation to the morning dose of the drug. Plasma was isolated from centrifuged blood samples and stored at −80 °C prior to quantification of AZD0424 by a validated high performance liquid chromatography method with mass spectrometric detection. Plasma concentration/time data were analysed using non-compartmental methods.

[11] = tested on: human Calu-6 lung tumour xenografts; settings: rats, pre-clinical; cited from earlier work
advanced solid tumours = test: Disease response by RECIST 1.1; assay type: in vivo, human
Procedure: All patients receiving at least one dose of AZD0424 were evaluable for safety and efficacy analyses. Safety and tolerability of AZD0424 were assessed according to NCI CTCAE version 4.02. Patients who were withdrawn from treatment, or received less than 75% of the planned doses of AZD0424 during the first cycle, for reasons other than toxicity were not evaluable for dose review decisions and could be replaced. Disease response was assessed according to RECIST 1.1. For stable disease (SD), follow-up measurements had to meet the SD criteria at least once at least 6 weeks after the first dose of AZD0424.

[12] = tested on: c-Src 3T mouse xenografts; settings: immunocompromised rats, subcutaneous, pre-clinical; cited from earlier work
Src [13] = test: Urinary NTX and serum CTX levels as markers of Src inhibition; assay type: in vivo, human
Procedure: Src inhibition is known to reduce bone resorption, resulting in a decrease in urinary N-terminal cross-linking telopeptides of type I collagen (NTX) and serum C-terminal cross-linking telopeptides of type I collagen (CTX) ([Hannon et al, 2012]). Measurements of urinary NTX and serum CTX levels were performed before the first administration of AZD0424 and then weekly, at the same time of day, for up to 6 weeks following first administration as markers of Src inhibition. Samples were analysed at the Mellanby Centre for Bone Research in Sheffield using the Cobas e411 automated immunoassay (Roche Diagnostics, Mannheim, Germany) for serum CTX (ng ml^−1), and the Ortho Clinical Diagnostics (High Wycombe, UK) automated immunoassay for urine NTX. Urinary NTX measurements were reported as a ratio to urinary creatinine (nmol bone collagen equivalent (BCE)/mmol creatinine). Tumour biopsies for measurement of tumour biomarkers (p-Src, Ki67, p-PAX, and p-FAK) by immunohistochemical staining were optional.

[14] = Plasma pharmacokinetics in patients;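 also: patient plasma drug levels measured by validated HPLC with mass spectrometric detection after a 3 h fast, PK parameters from non-compartmental analysis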
Procedure: as §3

VEGFR-2 = settings: ref Cancer Research UK Centre for Drug Development, 2015; cited from earlier work
[15] = dog, pre-clinical; cited from earlier work
[16] = tested on: human umbilical vein endothelial cell cultures; settings: in vitro, growth factor stimulated, pre-clinical; cited from earlier work
Yes = tested on: Yes; design: method as in Cancer Research UK Centre for Drug Development, 2015; settings: ref Cancer Research UK Centre for Drug Development, 2015; cited from earlier work
paxillin = settings: in vitro, pre-clinical; cited from earlier work
Lck = tested on: Lck; design: method as in Cancer Research UK Centre for Drug Development, 2015; settings: ref Cancer Research UK Centre for Drug Development, 2015; cited from earlier work

Cc1ccc(NC(=O)c2ccc(CN3CCN(C)CC3)cc2)cc1Nc1nccc(-c2cccnc2)n1 [imatinib]
inhibition of cell motility (breast cancer cell): markedly inhibits cell motility

COc1cc(Nc2c(C#N)cnc3cc(OCCCN4CCN(C)CC4)c(OC)cc23)c(Cl)cc1Cl [bosutinib, reference compound]
selectivity for SFKs over CSK ([1]; ref Davis et al, 2011): ~30 fold

CN1CCN(CCOc2cc(OC3CCOCC3)c3c(Nc4c(Cl)ccc5c4OCO5)ncnc3c2)CC1 [saracatinib]
recommended phase II dose (RP2D) [2]: 175 mg
rate of Grade 3 hypophosphataemia [3]: 50%

CC(=O)N1CCN(CCOc2cc(OC(C)C)c3c(Nc4c(Cl)cnc5c4OCO5)ncnc3c2)CC1 [AZD0424, 7-[2-(4-Acetylpiperazin-1-yl)ethoxy]-N-(6-chloro[1,3]dioxolo[4,5-b]pyridin-7-yl)-5-isopropoxyquinazolin-4-amine]
inhibition of proliferation [4]: potent inhibition of proliferation
IC50 (Src [5]): ~4 nM
Alopecia, treatment-related AE, All grades patients [6]: 17 (41) n (%)
Alopecia, treatment-related AE, Grade 3–5 patients [6]: 0 n (%)
Anaemia, treatment-related AE, All grades patients [6]: 7 (17) n (%)
Anaemia, treatment-related AE, Grade 3–5 patients [6]: 3 (7) n (%)
Anorexia, treatment-related AE, All grades patients [6]: 19 (46) n (%)
Anorexia, treatment-related AE, Grade 3–5 patients [6]: 1 (2) n (%)
Aspartate aminotransferase increased, treatment-related AE, All grades patients [6]: 5 (12) n (%)
Aspartate aminotransferase increased, treatment-related AE, Grade 3–5 patients [6]: 0 n (%)
Cmin at which Grade 2 or 3 hypophosphataemia appeared more frequent [6]: ≥ 200 nM
Constipation, treatment-related AE, All grades patients [6]: 6 (15) n (%)
Constipation, treatment-related AE, Grade 3–5 patients [6]: 1 (2) n (%)
Diarrhoea, treatment-related AE, All grades patients [6]: 12 (29) n (%)
Diarrhoea, treatment-related AE, Grade 3–5 patients [6]: 2 (5) n (%)
Dysgeusia, treatment-related AE, All grades patients [6]: 14 (34) n (%)
Dysgeusia, treatment-related AE, Grade 3–5 patients [6]: 0 n (%)
Fatigue, treatment-related AE, All grades patients [6]: 21(51) n (%)
Fatigue, treatment-related AE, Grade 3–5 patients [6]: 5 (12) n (%)
Headache, treatment-related AE, All grades patients [6]: 5 (12) n (%)
Headache, treatment-related AE, Grade 3–5 patients [6]: 0 n (%)
Hypophosphataemia, treatment-related AE, All grades patients [6]: 16 (39) n (%)
Hypophosphataemia, treatment-related AE, Grade 3–5 patients [6]: 8 (20) n (%)
Lymphocyte count decreased, treatment-related AE, All grades patients [6]: 10 (24) n (%)
Lymphocyte count decreased, treatment-related AE, Grade 3–5 patients [6]: 5 (12) n (%)
Maculopapular rash, treatment-related AE, All grades patients [6]: 9 (22) n (%)
Maculopapular rash, treatment-related AE, Grade 3–5 patients [6]: 2 (5) n (%)
Nausea, treatment-related AE, All grades patients [6]: 27 (66) n (%)
Nausea, treatment-related AE, Grade 3–5 patients [6]: 2 (5) n (%)
Pruritis, treatment-related AE, All grades patients [6]: 7 (17) n (%)
Pruritis, treatment-related AE, Grade 3–5 patients [6]: 0 n (%)
Vomiting, treatment-related AE, All grades patients [6]: 13 (32) n (%)
Vomiting, treatment-related AE, Grade 3–5 patients [6]: 1 (2) n (%)
dose above which treatment-related AE episodes and Grade 3-5 AEs increased markedly [6]: above 60 mg per day
nausea, fatigue, anorexia and alopecia, each: patients with treatment-related AE [6]: > 40%
patients with AE of Grade 3 hypophosphataemia related to the drug [6]: 19.5%
patients with at least one AE possibly, probably or highly probably related to AZD0424 [6]: 92.7%
patients with at least one AZD0424-related event Grade 3-5 in severity [6]: 41.5%
patients with decline in lymphocyte count [6]: 68.3%
patients with dose delays and/or alterations during the study [6]: 63.4%
protocol-defined RP2D [6]: 80 mg
deaths due to pneumonia considered possibly related to AZD0424 ([7]; all cohorts): One
patients who died within 4 weeks of the last administration ([7]; all cohorts): Four
maximum tolerated dose (MTD) ([7]; o.d., continuous oral dosing, 28-day cycles): 120 mg
inhibition of migration (human tumour cells): potent inhibition of migration
selectivity for Src-Abl1 kinases vs CSK ([1]; ref Cancer Research UK Centre for Drug Development, 2015): > 448 fold
dose limiting toxicity [8]: gastrointestinal toxicity being dose limiting
hypotension and reflex tachycardia [8]: Hypotension and reflex tachycardia were also observed
IC50 (ABL1): ~4 nM
inhibition of proliferation [9]: generally poor
one tenth of the maximum tolerated dose in rat scaled to man [10]: 17 mg
Tmax (clinical): < 2 h
half-life (clinical): 8.4 ± 2.8 h
AUC(0-t) (clinical; 5 mg): 0.624 µM·h
Cmax (clinical; 5 mg): 68.3 nM
half-life (clinical; 5 mg): 6.7 h
AUC(0-t) (clinical; 10 mg): 1.57 µM·h
Cmax (clinical; 10 mg): 210 nM
half-life (clinical; 10 mg): 6.3 h
Cmax (clinical; 20 mg): 590 ± 300 nM
half-life (clinical; 20 mg): 6.8 ± 2.6 h
AUC(0-t) (clinical; 40 mg): 6.81 ± 3.46 µM·h
Cmax (clinical; 40 mg): 715 ± 380 nM
half-life (clinical; 40 mg): 10.5 ± 0.8 h
AUC(0-t) (clinical; 60 mg): 9.88 ± 1.77 µM·h
Cmax (clinical; 60 mg): 1380 ± 215 nM
half-life (clinical; 60 mg): 8.2 ± 3.3 h
AUC(0-t) (clinical; 80 mg): 14.1 ± 5.12 µM·h
Cmax (clinical; 80 mg): 1670 ± 602 nM
half-life (clinical; 80 mg): 9.4 ± 5 h
AUC(0-t) (clinical; 120 mg): 24.9 ± 12 µM·h
Cmax (clinical; 120 mg): 2650 ± 923 nM
half-life (clinical; 120 mg): 7.8 ± 3.1 h
AUC(0-t) (clinical; 150 mg): 25.6 ± 4.15 µM·h
Cmax (clinical; 150 mg): 4110 ± 1540 nM
half-life (clinical; 150 mg): 7.8 ± 2.1 h
anti-tumour growth effect [11]: moderate anti-tumour growth effects
rate of PD (advanced solid tumours; 22/41): 53.7%
patients with SD lasting >12 weeks (advanced solid tumours; all cohorts): five
patients with best response of PD (advanced solid tumours; all cohorts): Twenty-two
patients with best response of stable disease lasting at least 6 weeks (advanced solid tumours; all cohorts, 7 of 41 patients): 17.1%
complete response or partial response (advanced solid tumours; all cohorts, N=41): No responses were observed; also recorded: No patients
inhibition of tumour growth [12]: profound, dose-dependent inhibition of tumour growth
change in CTX or NTX level (Src [13]; 5 mg, single patient): No significant post-administration changes
dose giving clear evidence of Src target inhibition / inhibition of bone turnover (Src [13]; CTX and NTX): ≥ 20 mg per day
change in CTX and NTX (Src [13]; all cohorts other than 5 mg, by week 2, maintained to 7 weeks): a fall relative to baseline values in both CTX and NTX
percentage reductions in CTX and NTX compared with 50 mg per day of saracatinib (Src [13]; doses of more than 10 mg per day, saracatinib data ref Hannon et al, 2012): Greater percentage reductions
Cmax and AUC(0-24 h) compared with saracatinib ([14]; comparable doses, saracatinib data ref Baselga et al, 2010): much higher for AZD0424 than saracatinib
dose dependence of Cmax and AUC ([14]; o.d. dosing 5-150 mg): increased linearly with dose; also recorded: Linear, dose-dependent increases; also recorded: dose-dependent, linear increases
absorption and bioavailability ([14]; oral): rapid absorption and high bioavailability
selectivity for Src-Abl1 kinases vs VEGFR-2 (VEGFR-2): > 933 fold
dose limiting toxicity [15]: gastrointestinal toxicity being dose limiting
hypotension and reflex tachycardia [15]: Hypotension and reflex tachycardia were also observed
inhibition of proliferation [16]: inhibited proliferation
activity against Yes (Yes): additional activity
inhibition of phosphorylation of paxillin (paxillin): evidence of inhibition of phosphorylation
activity against Lck (Lck): additional activity
